Legend:
CSR [1] = target: T1, CSR (Rattus norvegicus, UniProt P48442); experiment: Small animal PET/CT imaging of parathyroid in rats (static and dynamic); assay type: in vivo
T1 construct: Normal rats were used as an animal model for initial CSR agent imaging; from tissue; host or cells: rat parathyroid (also lung and other tissues), in vivo and excised sections
T1 sequence (P48442 20-1079): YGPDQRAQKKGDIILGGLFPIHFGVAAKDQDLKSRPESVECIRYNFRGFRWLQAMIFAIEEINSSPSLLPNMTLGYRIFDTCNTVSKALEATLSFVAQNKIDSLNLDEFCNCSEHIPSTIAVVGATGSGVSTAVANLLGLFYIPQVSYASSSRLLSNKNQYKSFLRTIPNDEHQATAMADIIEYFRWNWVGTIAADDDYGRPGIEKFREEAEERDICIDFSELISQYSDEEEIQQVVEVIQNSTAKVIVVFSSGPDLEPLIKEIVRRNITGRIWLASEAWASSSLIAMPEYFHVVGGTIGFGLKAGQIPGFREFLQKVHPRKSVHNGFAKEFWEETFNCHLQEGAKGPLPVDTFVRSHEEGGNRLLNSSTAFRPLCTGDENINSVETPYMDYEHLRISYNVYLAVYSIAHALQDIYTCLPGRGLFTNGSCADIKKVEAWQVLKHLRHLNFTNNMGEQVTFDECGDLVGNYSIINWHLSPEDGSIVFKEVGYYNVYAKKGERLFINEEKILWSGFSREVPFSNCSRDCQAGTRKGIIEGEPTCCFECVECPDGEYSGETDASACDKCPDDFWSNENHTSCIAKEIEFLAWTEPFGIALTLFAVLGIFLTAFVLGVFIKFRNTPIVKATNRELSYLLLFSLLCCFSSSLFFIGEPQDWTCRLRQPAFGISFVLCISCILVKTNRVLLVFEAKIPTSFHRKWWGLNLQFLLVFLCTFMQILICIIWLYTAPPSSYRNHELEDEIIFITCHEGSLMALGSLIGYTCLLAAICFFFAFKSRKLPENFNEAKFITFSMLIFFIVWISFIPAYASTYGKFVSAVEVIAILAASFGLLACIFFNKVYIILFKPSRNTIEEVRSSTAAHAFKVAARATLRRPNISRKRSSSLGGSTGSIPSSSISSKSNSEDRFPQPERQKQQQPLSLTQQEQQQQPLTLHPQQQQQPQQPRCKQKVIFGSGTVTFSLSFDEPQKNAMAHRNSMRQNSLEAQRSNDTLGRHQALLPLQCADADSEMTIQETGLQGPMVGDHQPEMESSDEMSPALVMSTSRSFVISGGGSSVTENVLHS
Procedure: Normal rats were used as an animal model for initial CSR agent imaging. Surgical dissection of the mouse parathyroid gland is too technically difficult, in contrast to the rat which has approximately 10 times the body mass of a mouse. Analyses were performed by individuals with extensive experience on parathyroid identification for pathology. autoradiography, and microscope study. In brief, animals were anesthetized with isoflurane. For PET probes, dynamic PET imaging was performed after the administration of 1 to 2 mCi of tracer, and animals were imaged with 2 h dynamic scan. A CT scan was also obtained for anatomic registration and attenuation correction. Images were reconstructed to create representative dynamic images for the study (10 min epochs). These images were qualitatively graded to assess the visibility of the parathyroid gland against background tissues. PET kinetic modeling was also performed to evaluate the relative kinetics of uptake of the parathyroid gland compared to the thyroid and other tissues.
^18F-cinacalcet could detect parathyroid gland in rats by targeting CSR. Parathyroid gland are very small (3-5 mm in human) and generally below the detection limit of most imaging methods. The novel CSR PET agent ^18F-cinacalcet was injected in rat and small animal PET imaging was performed. […] In order to confirm the observed signal did come from the very small parathyroid gland instead of thyroid or other tissue, the rats were sacrificed and the localization of radioactivity in the gland tissue was evaluated by autoradiography coupled with pathology staining of neighboring slides.
Small animal-PET CT imaging of parathyroid in rodents. Because the parathyroid is rather small, rats were used instead of mice to evaluate the agent. Static PET scans were acquired in rats at 0.5 h, 1 h and 2 h post injection of [^18F]F-ZW-cinacalcet. Representative coronal PET images are shown in FIG. 15 panel A. Parathyroid could be visualized on the image at the early time point of 0.5 h with a radiotracer uptake of 0.28±0.16% ID/g and parathyroid/muscle ratio of 4.9±0.93.
Dynamic PET images of [^18F]F-ZW-cinacalcet in rats were acquired for 60 minutes. [^18F]F-ZW-cinacalcet accumulated into parathyroid at the earliest timepoints and peaked at about 7 min post injection (0.33±0.05% ID/g), followed by a gradual decline to 0.17±0.01% ID/g at 60 min post injection.
Uptake peaked at 2 min post injection (lung: 1.00±0.19% ID/g; heart: 0.95±0.14% ID/g), with similar kinetics until 10 min post injection. Then, the heart uptake dropped rapidly to 0.15±0.27% ID/g at 60 min post injection, whereas the lung uptake remained at a high level at 60 min post injection of 0.41±0.07% ID/g. In addition, the radiotracer was also observed entering into the brain with a stable uptake level of ˜0.2% ID/g.

[2] = In vitro stability of 18F-cinacalcet (incubation, HPLC purity); assay type: physicochemical
Procedure: (§1) In a non-human primate imaging experiment, the blood samples were drawn from vein at 1 and 3 h post injection.
(§2) Stability of [^18F]F-ZW-cinacalcet. The photoredox labeling method allows access to a new category of PET agent bearing a SP^2-F bond. [^18F]F-ZW-cinacalcet has improved stability compared to the CF3 labeling method. The formulated [^18F]F-ZW-cinacalcet was first incubated in PBS (Phosphate buffered saline containing 8% EtOH), and aliquots were taken for analysis at different time points. […] Subsequently, the in vivo stability of [^18F]F-ZW-cinacalcet was tested in a non-human primate. After injection, a blood sample was collected at 1 and 3 h time points. […] Because the imaging was finished within the first hour, the metabolites were not determined in this study

[3] = In vivo stability in non-human primate blood samples; conditions: for In vivo stability in blood: non-human primate
Procedure: as §1, §2

CSR [4] = target: T1, CSR; experiment: Autoradiography with matched CSR IHC staining of excised rat tissue; assay type: in vivo; conditions: rats
Procedure: After the imaging of each animal, the parathyroid glands were carefully dissected out and the uptake in parathyroid gland was measured, then subsequently evaluated pathologically to confirm the histology. Autoradiography was performed to study its distribution in gland area. Optical imaging guidance during the surgical procedures was also performed using the developed CSR PET-fluorescence probes. During excision, the surgeon also graded the visibility of the lesions with and without the use of fluorescence. Other critical organs, including the thyroid gland, nearby tissues, and major organs were also dissected out to evaluate the relative uptake within these organs. The localization of radioactivity in the gland tissue was also confirmed by autoradiography coupled with pathology staining of neighboring slides.
^18F-cinacalcet could detect parathyroid gland in rats by targeting CSR. […] In order to confirm the observed signal did come from the very small parathyroid gland instead of thyroid or other tissue, the rats were sacrificed and the localization of radioactivity in the gland tissue was evaluated by autoradiography coupled with pathology staining of neighboring slides.
Autoradiography and pathology. […] Quantitative analysis of autoradiography and IHC staining was expressed as a mean integrated density (Mean IntDen). […]

[5] = Octanol water partition coefficient (Log P); assay type: physicochemical; conditions: 1-octanol/water; 1-octanol and water system, average value
Text: Determination of Octanol water Partition Coefficient (Log P).

[6] = dynamic PET, 2 min post injection
[7] = dynamic PET, 60 min post injection
[8] = static PET, 0.5 h post injection

In the case of `C[C@@H](NCCCc1cccc(C(F)(F)F)c1)c1ccc([18F])c2ccccc12` [[^18F]F-ZW-cinacalcet], the “Brain uptake, stable level” value (CSR [1]; dynamic PET) is reported as ~0.2 % ID/g, the “Heart uptake at peak” value (CSR [1]; [6]) is reported as 0.95±0.14 % ID/g and the “Lung uptake at peak” value (CSR [1]; [6]) is reported as 1.00±0.19 % ID/g. For the same molecule, the Muscle uptake (CSR [1]; dynamic PET, 20 min post injection) was < 0.06 % ID/g, the Heart uptake (CSR [1]; [7]) was 0.15±0.27 % ID/g and the Lung uptake (CSR [1]; [7]) was 0.41±0.07 % ID/g. For the same molecule, the Parathyroid uptake (CSR [1]; [7]) was 0.17±0.01 % ID/g, the “Parathyroid uptake at peak” value (CSR [1]; dynamic PET, about 7 min post injection) was 0.33±0.05 % ID/g and the “Time of peak lung and heart uptake” value (CSR [1]; dynamic PET, post injection) was 2 min. The “Time of peak parathyroid uptake” value (CSR [1]; dynamic PET, post injection) was “about 7 min”, the “PET signal in neck area” value (CSR [1]; small animal PET) was “clearly demonstrated two hot spots” and the Parathyroid radiotracer uptake (CSR [1]; [8]) was 0.28±0.16 % ID/g. The Parathyroid/muscle ratio (CSR [1]; [8]) was 4.9±0.93, the Parathyroid radioactivity (CSR [1]; static PET, 2 h time point) was “reverted to the background level” and the “In vitro stability, purity” value ([2]; 6 h time point) was > 90%. For the same molecule, the “Stability in PBS, purity” value ([2]; PBS containing 8% EtOH, 4 h post incubation) was > 95%, the Blood metabolic stability ([3]; Rhesus Macaque, overall judgement) was “acceptable stability for imaging applications” and the “In vivo stability in blood” value ([3]; 1 h post injection) was “majority of the agent remained untouched”. For the same molecule, the “In vivo stability in blood” value ([3]; 1 h post injection, listed as 18F-cinacalcet) was “rather stable”, the “In vivo stability in blood” value ([3]; 3 h post injection) was “hydrophilic metabolite was observed” and the “In vivo stability in blood” value ([3]; 3 h post injection, listed as 18F-cinacalcet) was “significant metabolites are observed”. The “Parathyroid/thyroid ratio in autoradiography (Mean IntDen)” value (CSR [4]; excised tissue sections) was 6.60±1.28, the “Localization of radioactivity by autoradiography and pathology staining” value (CSR [4]; neighboring slides) was “correlated well with parathyroid gland” and the logP [5] was 1.95 ± 0.02.
